Values joined by “and” are separate entries in the source; they are usually repeats but may differ in a detail not shown here. Identical values can stand only once.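 How tested: cells in 96-well plates exposed to compound for 48 hours at five concentrations. GI50: concentration for 50% inhibition of growth. At the TGI there is no net growth.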

Our source for the GI50 and TGI values is PubChem BioAssay (NCI).

The first assay relates to HOP-62 NSCLC. Briefly: growth of human tumour cells (NCI), 48 h.
Turning to `Cc1csc(Nc2nc(-c3cccc(Br)c3)nc(C(Cl)(Cl)Cl)n2)n1`, the GI50 was 2.21 µM and the TGI is over 28.7 µM.
Consider `NS(=O)(=O)c1ccc(N(/C=C/C(=O)C(F)(F)F)CC(=O)c2ccc(Cl)cc2)cc1`, for which the GI50 was 33 µM and the TGI was over 100 µM.
Compound `C1CSCCSCCS1` yielded a TGI of over 100 µM.
Turning to `CCN(CC)CCOc1ccc(/C=C2\CC3C4CC=C5C[C@@H](O)CC[C@]5(C)C4CC[C@]3(C)C2=O)cc1OC` (stereo partly drawn), the GI50 was 3.94 µM and the TGI was determined as 10.9 µM.
The compound `O=C(CC(O)(C(F)(F)F)C(F)(F)F)c1cc(CC(=O)C(O)(C(F)(F)F)C(F)(F)F)cc(CC(=O)C(O)(C(F)(F)F)C(F)(F)F)c1` gave a TGI of 3.29 µM.
As to `O=c1c2ccccc2sc2cccc(NCCCN3CCN(CCCNc4cccc5sc6ccccc6c(=O)c45)CC3)c12`, the TGI is over 100 µM.
Turning to `CC1(C)OCCn2c1nc1c(N3CCOCC3)nc(-c3cnc(N)nc3)nc12`, the GI50 was 0.477 µM and the TGI came out at 6.56 µM.
The compound `CC1=CC(=O)[C@@H](O)[C@]2(C)[C@H]3[C@@]4(O)OC[C@]35[C@H]([C@@H](C)[C@H]4O)[C@@H](O)C(=O)O[C@@H]5C[C@@H]12` had a TGI of 1.08 µM.
Regarding `O=C(c1c(F)ccc(NS(=O)(=O)N2CC[C@@H](F)C2)c1F)c1c[nH]c2ncc(-c3cnc(C4CC4)nc3)cc12`, the GI50 is 6.24 µM and 7.01 µM; the TGI is > 10 µM and 58.6 µM.
The compound `O=C(c1ccc(Cl)cc1)c1cnc(Nc2ccccc2Cl)s1` yielded a TGI of 54 µM.

Another assay deals with SK-OV-3 ovarian. Description: growth of human tumour cells (NCI), 48 h.
In the case of `O=C(c1ccc(F)c(F)c1Nc1ccc(I)cc1F)N1CC(O)([C@@H]2CCCCN2)C1`, the GI50 is 5.46 µM and 3.26 µM; the TGI was 20.6 µM and > 10 µM.
Consider `Oc1cc(O)c2c(c1)OC(c1ccc(O)c(O)c1)C(OC1(c3cc(O)c(O)c(O)c3)Oc3cc(O)cc(O)c3C(O)C1O)C2` (stereo not drawn), for which the TGI is over 100 µM.
With `COC12C=C/C(=C(/C(=O)OCc3ccncc3)C(=O)CCCCCCCCC3(OC)C=C/C(=C(/C(=O)OCc4ccncc4)C(=O)CCCCCCCC1)O3)O2`, the GI50 was 2.03 µM and the TGI amounted to 9.02 µM.
Taken in the same sequence, the figures for `CCOc1ccc2nc(S/C(=C/C=C(C#N)C#N)c3ccc(C)cc3)sc2c1` were over 100 µM and over 100 µM.
Taken in the same sequence, the figures for `COc1cc(CNCCCN2C(=O)c3ccc4c5c(ccc(c35)C2=O)C(=O)N(CCCNCc2cc(OC)c(OC)c(OC)c2)C4=O)cc(OC)c1OC` were 1.01 µM and 2.65 µM.
`Cc1nc2cnc(N)c(C#Cc3cncc(C(=O)Nc4ccc(CN5CCN(C)CC5)c(C(F)(F)F)c4)c3)c2nc1C`: the GI50 is 1.63 µM and the TGI amounted to 9.15 µM.
In turn, `CC(=O)OC12c3ccccc3-c3ccccc3C1C1C(=O)N(C)C(=O)C12Cl` (stereo not drawn) showed a TGI of over 10 µM.
Take `Cc1csc(Nc2nc(-c3cccc(Br)c3)nc(C(Cl)(Cl)Cl)n2)n1`: the GI50 is over 100 µM and the TGI was over 100 µM.
Take `NS(=O)(=O)c1ccc(N(/C=C/C(=O)C(F)(F)F)CC(=O)c2ccc(Cl)cc2)cc1`: the GI50 was 69 µM and the TGI is over 100 µM.
In the case of `C1CSCCSCCS1`, the TGI was over 100 µM.
In the case of `CCN(CC)CCOc1ccc(/C=C2\CC3C4CC=C5C[C@@H](O)CC[C@]5(C)C4CC[C@]3(C)C2=O)cc1OC` (stereo partly drawn), the GI50 was 8.64 µM and the TGI is over 58.3 µM.
Compound `O=C(CC(O)(C(F)(F)F)C(F)(F)F)c1cc(CC(=O)C(O)(C(F)(F)F)C(F)(F)F)cc(CC(=O)C(O)(C(F)(F)F)C(F)(F)F)c1` came in with a TGI of 9.55 µM.
For `O=c1c2ccccc2sc2cccc(NCCCN3CCN(CCCNc4cccc5sc6ccccc6c(=O)c45)CC3)c12`, the TGI is over 100 µM.
Take `CC1(C)OCCn2c1nc1c(N3CCOCC3)nc(-c3cnc(N)nc3)nc12`: the GI50 was 0.102 µM and the TGI stood at 0.495 µM.
For `CC1=CC(=O)[C@@H](O)[C@]2(C)[C@H]3[C@@]4(O)OC[C@]35[C@H]([C@@H](C)[C@H]4O)[C@@H](O)C(=O)O[C@@H]5C[C@@H]12`, the TGI is over 20.5 µM.
For `O=C(c1c(F)ccc(NS(=O)(=O)N2CC[C@@H](F)C2)c1F)c1c[nH]c2ncc(-c3cnc(C4CC4)nc3)cc12`, the GI50 was 3.39 µM and 3.66 µM; the TGI is > 10 µM and 21.4 µM.
As to `O=C(c1ccc(Cl)cc1)c1cnc(Nc2ccccc2Cl)s1`, the TGI is 52 µM.

The next assay concerns OVCAR-3 ovarian. Description: growth of human tumour cells (NCI), 48 h.
As to `O=C(c1ccc(F)c(F)c1Nc1ccc(I)cc1F)N1CC(O)([C@@H]2CCCCN2)C1`, the GI50 is 9.85 µM and > 10 µM; the TGI is 22.8 µM and > 10 µM.
With `Oc1cc(O)c2c(c1)OC(c1ccc(O)c(O)c1)C(OC1(c3cc(O)c(O)c(O)c3)Oc3cc(O)cc(O)c3C(O)C1O)C2` (stereo not drawn), the TGI is over 80 µM.
For the compound `COC12C=C/C(=C(/C(=O)OCc3ccncc3)C(=O)CCCCCCCCC3(OC)C=C/C(=C(/C(=O)OCc4ccncc4)C(=O)CCCCCCCC1)O3)O2`, the GI50 was 0.207 µM and the TGI was 0.93 µM.
As to `CCOc1ccc2nc(S/C(=C/C=C(C#N)C#N)c3ccc(C)cc3)sc2c1`, the GI50 was 32.6 µM and the TGI was over 100 µM.
As to `COc1cc(CNCCCN2C(=O)c3ccc4c5c(ccc(c35)C2=O)C(=O)N(CCCNCc2cc(OC)c(OC)c(OC)c2)C4=O)cc(OC)c1OC`, the GI50 was 0.143 µM and the TGI worked out at 0.382 µM.
Take `Cc1nc2cnc(N)c(C#Cc3cncc(C(=O)Nc4ccc(CN5CCN(C)CC5)c(C(F)(F)F)c4)c3)c2nc1C`: the GI50 was 0.824 µM and the TGI came out at 9.66 µM.
`CC(=O)OC12c3ccccc3-c3ccccc3C1C1C(=O)N(C)C(=O)C12Cl` (stereo not drawn) returned a TGI of over 10 µM.
On to `Cc1csc(Nc2nc(-c3cccc(Br)c3)nc(C(Cl)(Cl)Cl)n2)n1`, for which the GI50 was 1.11 µM and the TGI was found to be 3.24 µM.
In the case of `NS(=O)(=O)c1ccc(N(/C=C/C(=O)C(F)(F)F)CC(=O)c2ccc(Cl)cc2)cc1`, the GI50 is 31.8 µM and the TGI is over 100 µM.
The compound `C1CSCCSCCS1` displayed a TGI of over 100 µM.
`CCN(CC)CCOc1ccc(/C=C2\CC3C4CC=C5C[C@@H](O)CC[C@]5(C)C4CC[C@]3(C)C2=O)cc1OC` (stereo partly drawn): the GI50 is 1.71 µM and the TGI turned out to be 9.04 µM.
`O=C(CC(O)(C(F)(F)F)C(F)(F)F)c1cc(CC(=O)C(O)(C(F)(F)F)C(F)(F)F)cc(CC(=O)C(O)(C(F)(F)F)C(F)(F)F)c1` gave a TGI of 3.52 µM.
On the same count and under the same terms, for `O=c1c2ccccc2sc2cccc(NCCCN3CCN(CCCNc4cccc5sc6ccccc6c(=O)c45)CC3)c12` the value was over 100 µM.
Turning to `CC1(C)OCCn2c1nc1c(N3CCOCC3)nc(-c3cnc(N)nc3)nc12`, the GI50 was 0.308 µM and the TGI is over 31.5 µM.
As for `CC1=CC(=O)[C@@H](O)[C@]2(C)[C@H]3[C@@]4(O)OC[C@]35[C@H]([C@@H](C)[C@H]4O)[C@@H](O)C(=O)O[C@@H]5C[C@@H]12`, the TGI worked out at 2.11 µM.
Take `O=C(c1c(F)ccc(NS(=O)(=O)N2CC[C@@H](F)C2)c1F)c1c[nH]c2ncc(-c3cnc(C4CC4)nc3)cc12`: the GI50 is > 8.35 µM and 6.04 µM; the TGI was > 10 µM and 57.4 µM.
